In brackets after ≈: the same amount, converted by molar mass. Where two headings read alike, the source gives them in different places.
Tests used:
[1] = system: S. epidermidis; test: microbe, parasite or virus in culture; type: cell-based, Staphylococcus epidermidis; conditions: for MIC: Staphylococcus epidermidis
[2] = system: S. epidermidis; test: Minimum inhibitory concentration in Trypticase Soy Broth, synergy (fractional inhibitory concentration); type: cell-based, Staphylococcus epidermidis
[3] = tetrahydrofuran/methanol solvent systems
[4] = after 10-20 passages, inoculum 10^4 cfu/ml
[5] = Staphylococcus epidermidis, inoculum of 10^4 cfu/ml, read-out: MIC
[6] = after 10 transfers, inoculum 10^6 cfu/ml

Molecule	MIC ([1]; read-out: MIC AFTER PASSAGE)	MIC ([1]; read-out: MIC BEFORE PASSAGE)	INCREASE IN MIC [1, 4]	other results
NC[C@H]1O[C@H](O[C@H]2[C@H](O)[C@@H](O[C@H]3O[C@H](CO)[C@@H](O)[C@H](N)[C@H]3O)[C@H](N)C[C@@H]2N)[C@H](N)C[C@@H]1O [Tobramycin (Tb), tobramycin]	0.5 µg/mL (≈ 1.07 µM)	0.025 µg/mL (≈ 0.0535 µM)	20 fold	–
CN(C)c1ccc(O)c2c1C[C@H]1C[C@H]3[C@H](N(C)C)C(O)=C(C(N)=O)C(=O)[C@@]3(O)C(O)=C1C2=O [Minocycline (M), minocycline]	0.156 µg/mL (≈ 0.341 µM)	–	2 fold	MIC [2, 5]: 0.078 µg/mL; INCREASE IN MIC [1, 6]: 4 fold
CCn1cc(C(=O)O)c(=O)c2cc(F)c(N3CCNCC3)cc21 [Norfloxacin (Nf), norfloxacin]	2 µg/mL (≈ 6.26 µM)	–	40 fold	upper limit incorporated owing to low solubility [3]: about 0.5 percent (w/v); MIC [2, 5]: 0.05 µg/mL
polyhexamethylenebiguanide [PHMB]	–	–	–	INCREASE IN MIC [1]: 1.0 fold; MIC AFTER PASSAGE [1]: 0.31 µg/mL; MIC BEFORE PASSAGE [1]: 0.31 µg/mL
CC(=O)O.CC(=O)O.NC(=N\CCCCCC/N=C(N)/N=C(\N)Nc1ccc(Cl)cc1)/N=C(\N)Nc1ccc(Cl)cc1 [Chlorhexidine (CHX), chlorhexidine diacetate]	–	–	–	MIC ([2]; inoculum of 10^4 cfu/ml): 0.5 µg/mL; INCREASE IN MIC [1]: 2 fold; MIC AFTER PASSAGE [1]: 1.0 µg/mL; MIC BEFORE PASSAGE [1]: 0.5 µg/mL
CO[C@H]1/C=C/O[C@@]2(C)Oc3c(C)c(O)c4c(O)c(c(/C=N/N5CCN(C)CC5)c(O)c4c3C2=O)NC(=O)/C(C)=C\C=C\[C@H](C)[C@H](O)[C@@H](C)[C@@H](O)[C@@H](C)[C@H](OC(C)=O)[C@@H]1C [Rifampin (R), rifampin]	500 µg/mL (≈ 608 µM)	0.0195 µg/mL (≈ 0.0237 µM)	25,000 fold	–
Oc1cc(Cl)ccc1Oc1ccc(Cl)cc1Cl [Triclosan (T), triclosan]	2.5 µg/mL (≈ 8.63 µM)	0.35 µg/mL (≈ 1.21 µM)	7 fold	MIC ([2]; Staphylococcus epidermidis): 0.35 µg/mL; INCREASE IN MIC [1, 6]: 7 fold

Reference: patent US20050192547A1, “Combinations of antiseptic and antibiotic agents containing medical devices” (priority 2002, published 2005)
